Data published in patent US20060035901A1, “Methotrexate derivatives useful for treating cancer and arthritis” (Serenex, Inc., priority 2004, published 2006).

Assays:
[1] = biological target: T1, pyruvate carboxylase (PYC) (Sus scrofa, UniProt A0A8W4F6F0); assay: Elution of PYC from ATP-Sepharose column loaded with porcine liver proteome, IC50 estimate; format: binding; settings: estimated from percent of protein eluted from ATP-Sepharose column, read-out: Approximate IC50 for PYC
T1 construct: a porcine liver proteome was run over an ATP-Sepharose™ column; from tissue; host or cells: porcine liver
T1 sequence (A0A8W4F6F0 1-1157): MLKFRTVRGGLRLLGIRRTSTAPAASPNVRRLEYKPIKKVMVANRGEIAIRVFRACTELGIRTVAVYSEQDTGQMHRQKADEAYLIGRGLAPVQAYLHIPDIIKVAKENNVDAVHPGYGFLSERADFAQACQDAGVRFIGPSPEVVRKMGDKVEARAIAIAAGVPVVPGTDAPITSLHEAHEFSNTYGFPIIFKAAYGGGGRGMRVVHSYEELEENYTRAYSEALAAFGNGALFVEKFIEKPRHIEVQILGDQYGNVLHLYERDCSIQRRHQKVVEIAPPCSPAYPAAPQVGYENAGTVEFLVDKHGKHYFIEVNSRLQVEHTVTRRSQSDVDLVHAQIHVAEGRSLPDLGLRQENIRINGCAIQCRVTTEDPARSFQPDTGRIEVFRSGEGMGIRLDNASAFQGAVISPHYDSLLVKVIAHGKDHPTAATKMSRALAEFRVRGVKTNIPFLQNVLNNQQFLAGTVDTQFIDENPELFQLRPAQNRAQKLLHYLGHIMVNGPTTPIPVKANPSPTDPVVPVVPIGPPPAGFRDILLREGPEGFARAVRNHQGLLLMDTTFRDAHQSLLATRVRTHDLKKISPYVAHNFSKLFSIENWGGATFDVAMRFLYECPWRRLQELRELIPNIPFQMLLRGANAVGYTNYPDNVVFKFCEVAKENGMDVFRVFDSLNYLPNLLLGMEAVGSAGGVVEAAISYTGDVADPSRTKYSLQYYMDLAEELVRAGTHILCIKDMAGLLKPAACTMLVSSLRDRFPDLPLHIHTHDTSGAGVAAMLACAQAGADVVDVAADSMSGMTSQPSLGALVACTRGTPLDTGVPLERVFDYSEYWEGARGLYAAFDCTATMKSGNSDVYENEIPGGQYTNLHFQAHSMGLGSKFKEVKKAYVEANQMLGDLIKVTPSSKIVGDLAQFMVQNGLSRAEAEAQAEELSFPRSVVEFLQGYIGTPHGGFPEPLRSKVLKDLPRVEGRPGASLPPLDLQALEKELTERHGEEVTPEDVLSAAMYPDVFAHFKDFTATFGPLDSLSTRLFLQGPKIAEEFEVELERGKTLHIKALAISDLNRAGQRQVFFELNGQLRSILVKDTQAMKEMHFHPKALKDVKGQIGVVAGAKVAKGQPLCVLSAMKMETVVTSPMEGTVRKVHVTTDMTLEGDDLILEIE
Method: Similar experiments were carried out to compare the IC50 values for PYC, PCCA, and PCCB. In these trials, a porcine liver proteome was run over an ATP-Sepharose™ column to bind all purine-binding proteins. The ATP-Sepharose™ column was washed several times, and then eluted with the compound of Formula III at concentrations of 1 μM, 5 μM, 10 μM, 50 μM, 100 μM, and 500 μM to identify proteins that bound to this compound. (The amount of protein eluted at the higher concentration ranges plateaued, thus confirming that the entire fraction of bound protein had been eluted.) The eluted fractions were run on a 1-dimensional SDS polyacrylamide gel.
Gels were stained with a fluorescent stain such as sypro ruby (a highly sensitive fluorescent protein stain that can readily detect less than 1 fmol of total protein, i.e., less than 0.04 ng for a 40 kDa protein). The gels were imaged using a standard flat bed gel imager and the amount of protein estimated by densiometry. The percent of protein eluted from the column at each concentration was determined and IC50 values were calculated from these estimates. Where necessary, the eluted proteins were cut out of the gel, and identified using mass spectral techniques.
These steps were repeated with each of the compounds of Formulas IV-X, MTX, and the c series derivative. The values obtained were then compared to those for DHFR.

DHFR = biological target: T2, DHFR (Homo sapiens, UniProt P00374); assay: DHFR enzymatic assay; format: biochemical; settings: determined by enzymatic assay
T2 sequence (P00374 1-187): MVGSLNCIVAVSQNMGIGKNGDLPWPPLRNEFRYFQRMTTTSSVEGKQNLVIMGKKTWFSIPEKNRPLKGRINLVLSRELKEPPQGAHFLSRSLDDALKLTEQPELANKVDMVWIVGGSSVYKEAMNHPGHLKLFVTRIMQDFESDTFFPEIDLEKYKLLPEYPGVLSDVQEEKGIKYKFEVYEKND

IC50 [1] [µM] | IC50 (DHFR) [nM] | Structure (SMILES)
3.5 | 15 | Cc1cc(C(=O)NC(CCC(=O)O)C(=O)O)ccc1N(Cc1ccoc1)Cc1cnc2nc(N)nc(N)c2n1 (centres unmarked) [Formula VII]
3.75 | 15 | C#CCN(Cc1cnc2nc(N)nc(N)c2n1)c1ccc(C(=O)NC(CCC(=O)O)C(=O)O)cc1OC (centres unmarked) [Formula VIII]
3.8 | 10 | C#CCN(Cc1cnc2nc(N)nc(N)c2n1)c1ccc(C(=O)NC(CCC(=O)O)C(=O)O)cc1C (centres unmarked) [Formula III, 2-{4-[(2,4-diamino-pteridin-6-ylmethyl)-prop-2-ynyl-amino]-3-methyl-benzoylamino}-pentanedioic acid]
7 | 118 | C#CCN(Cc1cnc2nc(N)nc(N)c2n1)c1ccc(C(=O)NC(CCC(=O)O)C(=O)O)cc1OC(F)(F)F (centres unmarked) [Formula IX]
